Measurements as given in patent US20090281025A1, “INHIBITION OF TUMOR GROWTH AND METASTASIS BY ATF2-DERIVED PEPTIDES” (Mount Sinai School Of Medicine of New York University, priority 2004, published 2009).
Several values for one entry are separate records, joined by “and”; a condition that tells them apart may be missing. Equal values may be shown once.

Assays:
JNK = conditions: cited from earlier work
SW-1 cells = experiment: Caspase and PARP cleavage immunoblot in SW-1 cells; format: cell-based, mouse; conditions: peptides by transfection, UCN-01 (5 μm) 24 hours
Method: Human melanoma cells LU1205 were transfected with the nucleic acid molecules that encode either ATF2^51-100 peptide or ATF2^51-60 peptide. Twenty-four hours after transfection, cells were treated with of UCN-01 (5 μm) for 24 hours. Immunoblotting analysis was performed using caspase 9 and PARP antibodies, and β-actin was used as a loading control (FIG. 6A). The same experiment was performed in SW-1 cells (FIG. 6B). Stars point to the position of the uncleaved form whereas arrows point to the cleaved products.
Effect on Apoptosis. Assessed next was the degree of apoptosis in SW1 cells under normal growth (spontaneous) as well as following treatment with chemotherapeutic drugs. Cells were analyzed to detect spontaneous (basal) or induced apoptosis [following treatment with the kinase inhibitor UCN-01 (kindly provided by NCI repository) for 36 hours]. Apoptosis was measured by using FACS (Ivanov et al., Mol. Cell, 2001, 7:517-28) to quantify the percentage of hypodiploid nuclei undergoing DNA fragmentation. Nucleation as a marker of apoptosis was monitored via DAPI staining of cells at indicated time points after their treatment. Caspase activity was monitored by immunoblots using antibodies to caspase 9 (Santa Cruz). PARP cleavage was monitored by corresponding antibodies (PharMingen).

[1] = tested on: MCF7 human breast cancer cells; conditions: cited from earlier work
Jun2-Luc = Jun2-Luc luciferase reporter assay in SW1 cells; format: cell-based, mouse; conditions: SW1 cells expressing peptide, luciferase after 18 hours
Method: SW1 cells constitutively expressing the indicated ATF2 peptides were transfected with either TRE-Luc (FIG. 5A) or with Jun2-Luc (FIG. 5B), and proteins were prepared for analysis of luciferase activity after 18 hours. Analysis was performed in duplicate, and the data reflect three independent experiments. SW1 cells expressing the ATF2 peptides were analyzed to establish the degree of spontaneous (basal) apoptosis as well as apoptosis 24 hours following treatment with the chemotherapeutic drug UCN-01 (FIG. 5C). The data represent triplicate analysis reproduced three times.
Alteration of ATF2 Transcriptional Activity. Assessed next was whether the short peptide caused any change in transcriptional activity mediated by ATF2 and its heterodimeric partners, using the TRE and Jun2 promoter sequences linked to the Luciferase marker gene. These reporter constructs (0.3 μg) were cotransfected with the respective expression vectors into melanoma cells (5×10^5) using Lipofectamine (Invitrogen). Luciferase activity was measured using the Luciferase assay system (Promega).

human melanoma cells = conditions: cited from earlier work
SW1 tumors = experiment: cDNA microarray gene expression profiling of SW1 tumors; format: in vivo, mouse; conditions: down regulated, hybridizations #1-#4, listed as ATFp2
Source text: FIGS. 8A and 8B show gene profiling analysis of SW1 tumors expressing the ATF2^51-100 peptide. Tumors generated, in the absence or presence of a peptide, were used as source of mRNA for array analysis of 10K mouse genes (see Example 5). […] In all cases, the data represent analyses carried out 4 times from 4 different pools of tumors.
To elucidate the molecular pathways affected by expression of the ATF2^51-100 peptide, we used cDNA microarray analysis to compare the RNA expression profiles of SW1 tumors that express this peptide or a control vector (FIG. 8A). The 10k mouse Gem 2 gene set (Incyte Genomics Inc, Palo Alto, Calif.) was printed at the NCI on poly-L-lysine-coated glass using a Biorobotics TASII arrayer (Cambridge, England). All protocols for manufacturing and hybridization of microarrays are posted on the NCI web site (see, e.g., nciarray.nci.nih.gov). Approximately 20 μg of total RNA were used in the reverse transcription reaction to directly label the probe with Cy-5 dUTP or Cy-3 dUTP (Amersham). Hybridizations were performed at 65° C. for 12-18 h in a hybridization volume of 35 μL. The hybridized arrays were scanned using an Axon GenePix 4000 scanner (Union City, Calif.) and fluorescence data were collected using the GenePix software.
mRNA was prepared from a pool of 4 tumors obtained from two different experiments. In both cases, tumors were excised 2 weeks after subcutaneous injection of cells. Because the fluorescently labeled Cy dyes may incorporate into the reverse-transcribed cDNA with different efficiencies, RNA isolated from both cell types was always labeled with both combinations of Cy dyes. […] SW1 vector control cells were labeled with Cy-3 (F532) and the SW1-ATF 51-100 cells were labeled with Cy-5 (F635).

## ATF2^51-100: amino-terminal peptide of ATF2, amino acid residue 51 to 100 (about a 50 amino acid peptide), expressed in tumor cells (MTLKFGPARNDSVIVADQTPTPTRFLKNCEEVGLFNELASPFENEFKKAS; UniProt P15336 51-100, looked up, fragment)
JNK
  basal JNK activity: increased basal JNK activity
  binding to JNK: binds to JNK
SW-1 cells
  activation of caspase 9 (cleavage fragments): activation of caspase 9 even prior to treatment with UCN-01
[1]
  sensitization by ATF2 peptide: also observed
Jun2-Luc
  Jun2-Luc transcriptional activity: efficiently inhibited
Human melanoma cells; combined with an inhibitor of the p38 catalytic activity
  degree of programmed cell death (spontaneous and induced apoptosis): increase in the degree of programmed cell death
Human melanoma cells; compared with three other 50 amino acid amino-terminal ATF2 peptides
  sensitivity to UV radiation or mitomycin C, adriamycin and verapamil, or UCN-01 (apoptosis assays): most efficient increase in the sensitivity
Human melanoma cells; late stage melanoma cells
  cell surface expression of Fas: increased cell surface expression of Fas
SW1 tumors; IMAGE: 334351
  Ratio ATFp2-Cy5 vs parental control-Cy3: Mt2 (metallothionein 2): 0.3874 and 0.3888 and 0.4649 and 0.5780
SW1 tumors; IMAGE: 368571
  Ratio ATFp2-Cy5 vs parental control-Cy3: Hadh (hydroxyacyl-Coenzyme A dehydrogenase): 0.3738 and 0.3752 and 0.5471 and 0.6286
SW1 tumors; IMAGE: 406272
  Ratio ATFp2-Cy5 vs parental control-Cy3: Crabp1 (cellular retinoic acid binding protein I): 0.3248 and 0.361 and 0.3150 and 0.3569
SW1 tumors; IMAGE: 516935
  Ratio ATFp2-Cy5 vs parental control-Cy3: RIKEN cDNA 2900002K07 gene: 0.3227 and 0.3239 and 0.2740 and 0.3014
SW1 tumors; IMAGE: 577544
  Ratio ATFp2-Cy5 vs parental control-Cy3: Ptk2 (PTK2 protein tyrosine kinase 2): 0.3803 and 0.3817 and 0.3913 and 0.4599
SW1 tumors; IMAGE: 616653
  Ratio ATFp2-Cy5 vs parental control-Cy3: Ifit1 (interferon-induced protein with tetratricopeptide repeats 1): 0.2354 and 0.2363 and 0.2637 and 0.3054
SW1 tumors; IMAGE: 619632
  Ratio ATFp2-Cy5 vs parental control-Cy3: ESTs: 0.4707 and 0.4724 and 0.3928 and 0.6046
SW1 tumors; IMAGE: 620800
  Ratio ATFp2-Cy5 vs parental control-Cy3: Scya12 (small inducible cytokine A12): 0.2911 and 0.2922 and 0.3318 and 0.4279
SW1 tumors; IMAGE: 621129
  Ratio ATFp2-Cy5 vs parental control-Cy3: ESTs: 0.4938 and 0.4955 and 0.3268 and 0.3091
SW1 tumors; IMAGE: 636228
  Ratio ATFp2-Cy5 vs parental control-Cy3: Casp6 (caspase 6): 0.3777 and 0.3791 and 0.4947 and 0.6368
SW1 tumors; IMAGE: 636695
  Ratio ATFp2-Cy5 vs parental control-Cy3: Igh-1 (immunoglobulin heavy chain 1 (serum IgG2a)): 0.3565 and 0.3578 and 0.4847 and 0.6503
SW1 tumors; IMAGE: 720190
  Ratio ATFp2-Cy5 vs parental control-Cy3: S100a9 (S100 calcium-binding protein A9 (calgranulin B)): 0.3486 and 0.3498 and 0.362 and 0.3547
SW1 tumors; IMAGE: 751642
  Ratio ATFp2-Cy5 vs parental control-Cy3: Jsp18 (ubiquitin specific protease 18): 0.3213 and 0.3225 and 0.2989 and 0.2958
SW1 tumors; IMAGE: 836124
  Ratio ATFp2-Cy5 vs parental control-Cy3: Plat (plasminogen activator, tissue): 0.4074 and 0.4089 and 0.4019 and 0.5488
SW1 tumors; IMAGE: 864447
  Ratio ATFp2-Cy5 vs parental control-Cy3: G0s2 (G0/G1 switch gene 2): 0.4421 and 0.4583 and 0.383 and 0.3949
SW1 tumors; IMAGE: 1022928
  Ratio ATFp2-Cy5 vs parental control-Cy3: Xlr (X-linked lymphocyte-regulated complex): 0.1598 and 0.1572 and 0.1540 and 0.1537
SW1 tumors; IMAGE: 1023899
  Ratio ATFp2-Cy5 vs parental control-Cy3: Lgals7 (lectin galactose binding, soluble 7): 0.4381 and 0.4397 and 0.4481 and 0.4781
SW1 tumors; IMAGE: 1037652
  Ratio ATFp2-Cy5 vs parental control-Cy3: Mus musculus, clone MGC: 19199 IMAGE: 4236882, mRNA, complete cds: 0.4768 and 0.4785 and 0.4402 and 0.4792
